Assay results: patent publication US6022307A, “Substituted dibenzothiophenes having antiangiogenic activity” (American Cyanamid Company, priority 1999, dated 2000)
Where a name gives a salt, the structure may show the parent alone. Read-outs that look alike come from different tables or passages of the source.

Experiments:
[1] = system: VEGF 165-induced vascular permeability; assay: Inhibition of Vascular Permeability Assay (Miles Assay); assay type: in vivo, BALB/c female mice; settings: 100 mg/kg, PO
Procedure: Inhibition of Vascular Permeability Assay (Miles Assay) This assay was performed using BALB/c female mice (Charles River, Wilmington, Mass.). Both sides of the animals were shaved between 24 and 48 hours before the start of the assay. There were 10 animals per experimental group. […] One half hour later the animals were sacrificed by CO2 inhalation. […] Data was statistically analyzed via Student-t-test. A p-value (p≤0.05) indicates a statistically significant difference between the area of vascular permeability of the vehicle control verses the experimental group. Data was statistically analyzed via Student-t-test of Log Relative Area of Permiability. A p-value (p≤0.05) indicates a statistically significant reduction in permeability of Treated Group, compared to Placebo Control.

[2] = system: KDR
Procedure: (§1) Inhibition of Binding of VEGF 165 to KDR & Flt-1 Receptors as Measured by SPA Assay
(§2) Preparation of conditioned media containing the KDR-Fc soluble VEGF receptor.:
(§3) Human 293KDR2 cells, which secrete a soluble KDR-Fc fusion protein, were grown in Dulbecco's Modified Eagle Medium supplemented with 10% fetal calf serum, 2 mM glutamine, 10 units/ml penicillin G sulfate, 10 μg/ml streptomycin sulfate and 175 μg/ml geneticin (G418) sulfate. Cells were plated at a density of 10^6 cells/100 mm dish and incubated at 37° C. in a humidified atmosphere containing 95% air and 5% CO2. After 10 days, conditioned medium was collected and centrifuged at 15,000 rpm for 15 min to remove dead cells. A total of 0.1 volume of 1.15% gelatin and 0.02 volume of 1M HEPES buffer (pH 8) was added. Leupeptin and pepstatin A were added to 1 μg/ml each.
(§4) Preparation of ^125 I-labelled VEGF ligand:
(§5) Recombinant human ^125 T-labelled VEGF 165 was purchased from Amersham (3,800 cpm/fmol). ^125,-labelled VEGF was diluted in DMEM supplemented with gelatin (0.15%) and HEPES buffer (20 mM) to a final concentration of 40,000 cpm/25 μl.
Preparation of SPA beads:
(§6) SPA PVT antibody-binding beads were purchased from Amersham. Each bottle of SPA beads (500 mg) was reconstituted in 25 ml of DMEM supplemented with gelatin (0.15%) and HEPES buffer (20 mM). The bottle contents were well mixed (15 min with a stir bar at room temperature).
(§7) SPA assays were performed in flat-bottom polystyrene 96 well microtitre plates.
(a) Pipette 50 μl of SPA beads to well.
(§8) (b) Pipette 25 μl of conditioned medium to well.
(§9) (d) Pipette 25 μl of ^125 J-VEGF 165 to well.
(§10) The appropriate control wells were set up to measure non-specific binding, solvent effect, etc. The assays were run in duplicate or triplicate wells. Plates were sealed and incubate at room temperature without shaking for 5 to 20 hours. Plates were then counted in a Packard TopCount microtitre plate liquid scintillation counter.
(§11) A typical assay gave 3,000 to 6,000 cpm bound. Background binding (measured in the presence of 100-fold molar excess of unlabelled VEGF 165) was typically 200 to 300 cpm bound. Compounds were tested at 30, 10, 3, 1, 0.3 and 0.1 μg/ml in DMSO. […] Half maximal binding was determined by the following equation:
(§12) s=maximal cpm bound in the absence of compound.
(§13) The IC50 values were determined graphically by the following procedure:
(§14) A graph was drawn plotting compound concentration (x-axis) versus cpm bound (y-axis).
(§15) The half maximal binding was calculated using the equation above.
(§16) A horizontal line (LINE A) was drawn which intersects the y-axis at the half maximal binding value.
(§17) A vertical line (LINE B) was drawn through the point where LINE A intersects the inhibition curve.
(§18) The point where LINE B intersects the x-axis was extrapolated from the graph to give the IC50 value.

[3] = system: Human Epidermoid Tumors (A431); assay type: in vivo, human tumor in BALB/c nu/nu female mice
Procedure: In Vivo Inhibition of Growth of Human Epidermoid Tumors (A431)
In vivo testing was performed using BALB/c nu/nu female mice (Charles River, Wilmington, Mass.). The human epidermoid carcinoma cells A-431 (American Type Culture Collection, Rockville, Md. # CRL-155) were grown in vitro and 5×10^6 cells were injected subcutaneously (SC) into mice. When tumors attained a mass of between 100 and 150 mg, the mice were randomized into treatment groups (Day Zero). Mice were treated either intraperitoneally (IP) or orally (PO) once a day on days 1 through 20 post staging with doses of either 100 or 50 mg/kg/dose in 0.2% Klucel. Tumor mass was determined every 7 days [(length×width^2)/2] for up to 42 days post staging. Relative tumor growth (mean tumor mass on day 7, 14, 21, 28, 35 and 42 divided by the mean tumor mass on day zero) was determined for each treatment group. The %T/C (Tumor/Control) was determined by dividing the relative tumor growth of the treated group by the relative tumor growth of the placebo group and multiplying by 100. Data was statistically analyzed via Student-t-test of Log Relative Tumor Growth. A p-value (p≤0.05) indicates a statistically significant reduction in Relative Tumor Growth of Treated Group, compared to Placebo Control. A compound is considered to be active if the %T/C is found to be <60% and a p-value of less than or equal to 0.05 is achieved.

[4] = biological target: KDR; assay: Inhibition of Binding of VEGF 165 to KDR Receptor as Measured by SPA Assay; settings: read-out: affinity constant for VEGF binding to the soluble KDR-Fc receptor
Target sequence in this assay (P35968 20-327 limits assumed): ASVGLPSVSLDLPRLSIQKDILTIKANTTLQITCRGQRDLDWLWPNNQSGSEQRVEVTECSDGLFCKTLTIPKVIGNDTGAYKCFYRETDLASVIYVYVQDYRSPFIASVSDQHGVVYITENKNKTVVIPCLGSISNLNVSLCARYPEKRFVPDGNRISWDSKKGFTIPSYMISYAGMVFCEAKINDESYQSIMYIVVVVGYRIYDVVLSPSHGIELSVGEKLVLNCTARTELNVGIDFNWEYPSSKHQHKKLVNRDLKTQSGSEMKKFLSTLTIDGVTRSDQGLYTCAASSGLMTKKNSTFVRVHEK
Procedure: as §1, §2, §3, §4, §5
Preparation of SPA beads:
as §6, §7
(a) Pipette 50 μl of SPA beads to well.
as §8, §9, §10, §11, §12, §13, §14, §15, §16, §17, §18

[5] = system: Human Epidermoid Tumors (A431); assay type: in vivo, human tumor in BALB/c nu/nu female mice; settings: 100 mg/kg, PO
[6] = system: corneal neovascularization; assay: Corneal Neovascularization Model; assay type: in vivo, mice; settings: 100 mg/kg, PO, days 1-10
Procedure: Corneal Neovascularization Model
The sustained release preparations of angiogenic agents (ELVAX pellet) were prepared by solvent casting. […] The solvent was then evaporated, leaving the angiogenic agent in the polymeric matrix
Mice were anesthetized using a 1-1.5 ml/kg solution containing a mixture of 70% ketamine hydrochloride (100 mg/ml) and 30% xylazine (20 mg/ml). Using sterile surgical technique, an ELVAX pellet containing either basic FGF (100 ng) or VEGF (400 ng) was implanted into a previously dissected intrastromal corneal pocket 0.5 mm from the corneoscleral limbus. Following implantation the implantation site margins were reapposed and the eyes were treated with topical antibiotic ointment (bacitracin/neomycin/polymixin). On various days (between postoperative days 4 and 18) the extent of neovascularization was measured.
Neovascularization was monitored by measurements of new vessel growth within the previously avascular cornea. This parameter was obtained by measuring with calipers under microscopic magnification the length of the base of the neovascular bed at the limbus. The area of neovascularization,which is typically triangular, was calculated by dividing the product of the length of the vessel and the base length by two. Data was statistically analyzed via Student-t-test of Log Relative Reduction of Neovascularization. A p-value (p≤0.05) indicates a statistically significant reduction in neovascularization of Treated Group, compared to Placebo Control.

Row | IC50 [2] | Compound | % Control ([1]; 4 hr prior to VEGF) | Lesion Area (measured area of vascular permeability) ([1]; 4 hr prior to VEGF) | % T/C (Day) ([3]; 50 mg/kg, PO, day 28) | other results
1 | 0.5 mg/L | COc1ccc(/C=C/C(=O)Nc2cc3c(cc2S(=O)(=O)O)-c2cc(S(=O)(=O)O)c(NC(=O)/C=C/c4ccc(OC)cc4)cc2S3(=O)=O)cc1 [Example 30, 3,7-Bis-[3-(4-methoxyphenyl)-acryloylamino]-5,5-dioxo-5H-5^6-dibenzothiophene-2,8-disulfonic acid, disodium salt] | 56% | 52.9 mm^2 | 58% | % T/C (Day) ([3]; 100 mg/kg, PO, day 42): 56%
2 | 2.33 mg/L | COc1ccc(/C=C/C(=O)Nc2cc3c(cc2S(=O)(=O)O)-c2cc(S(=O)(=O)O)c(NC(=O)/C=C/c4ccc(OC)c(OC)c4Cl)cc2S3(=O)=O)c(Cl)c1OC [Example 27, 3,7-Bis[3-(2-chloro-3,4-di-methoxyphenyl)-acryloylamino]-5,5-dioxo-5H-5^6-dibenzothiophene-2,8-disulfonic acid, disodium salt] | 73% | 58.5 mm^2 | 51% | % T/C (Day) ([3]; 100 mg/kg, PO, day 28): 30%
3 | – | VEGF | – | – | – | Kd [4]: ~0.1 nM
4 | 1 mg/L | O=C(Nc1cc2c(cc1S(=O)(=O)O)-c1cc(S(=O)(=O)O)c(NC(=O)c3ccc4c(c3)C(=O)c3ccccc3C4=O)cc1S2(=O)=O)c1ccc2c(c1)C(=O)c1ccccc1C2=O [Example 55, 3,7-Bis-[9,10-dihydro-9,10-dioxoanthracen-2-yl)carbonyl-amino]-5,5-dioxo-5H-5^6-dibenzothiophene-2,8-disulfonic acid, disodium salt] | 74% | 70.5 mm^2 | 44% | % Control ([1]; 1 hr prior to VEGF): 77%; Lesion Area (measured area of vascular permeability) ([1]; 1 hr prior to VEGF): 71.6 mm^2
5 | 0.5 mg/L | O=C(Nc1cc2sc3cc(NC(=O)c4cc5c(s4)-c4cc(Cl)ccc4SC5)c(C(=O)O)cc3c2cc1C(=O)O)c1cc2c(s1)-c1cc(Cl)ccc1SC2 [Example 6, 3,7-Bis[(8-chloro-4H-thieno[3,2-c][1]benzothiopyran-2-carbonyl)-amino]dibenzothio-phene-2,8-dicarboxylic acid, disodium] | – | – | – | % T/C (Day) ([5]; day 15): 52%
6 | 0.15 mg/L | O=C(Nc1cc2c(cc1S(=O)(=O)O)-c1cc(S(=O)(=O)O)c(NC(=O)c3ccc4cc5ccccc5cc4c3)cc1S2(=O)=O)c1ccc2cc3ccccc3cc2c1 [Example 54, 3,7-Bis-(anthracen-2-ylcarbonylamino)-5,5-dioxo-5H-5^6-dibenzothiophene-2,8-disulfonic acid, disodium salt] | – | – | 38% | % T/C (Day) ([3]; 50 mg/kg, IP, day 28): 46%

Row | Compound | IC50 [2] | % Control ([1]; 4 hr prior to VEGF) | Lesion Area (measured area of vascular permeability) ([1]; 4 hr prior to VEGF) | % T/C (Day) ([3]; 50 mg/kg, PO, day 28) | other results
7 | CCOP(=O)(O)c1cc2c(cc1NC(=O)/C=C/c1ccc(OC)cc1)S(=O)(=O)c1cc(NC(=O)/C=C/c3ccc(OC)cc3)c(P(=O)(O)OCC)cc1-2 [Example 20, [3,7-Bis-[4-methoxyphenyl]-acryloylamino]-8-(ethoxyhydroxy-phosphoryl)-5,5-dioxo-5H-5^6-dibenzothiophen-2-yl]-phosphonic acid monoethyl ester, disodium salt] | 3.9 mg/L | – | – | – | % T/C (Day) ([5]; day 29): 39%; S/T (No. Survivors/No. Treated) ([3]; 100 mg/kg, PO, Day +28 post tumor staging): 5/5; Inhibition of Corneal Neovascularization ([6]; Day 4): 29%; Inhibition of Corneal Neovascularization ([6]; Day 8): 25%; Inhibition of Corneal Neovascularization ([6]; Day 11): 30%; Inhibition of Corneal Neovascularization ([6]; Day 13): 26%
